Measured values from article PMC7913412, “Identification and characterization of heteroclitic peptides in TCR-binding positions with improved HLA-binding efficacy” (Journal of Translational Medicine, 2021).

Molecular target: H2-Db molecule (Mus musculus, UniProt P01899)
Experiment: Peptide binding affinity assay on TAP-deficient RMA-S cells (anti-H-2Db staining, flow cytometry)
Type: cell-based
Conditions: 3 x 10^5 cells/well, peptide 1, 5, 10 μM, 4 h at 37 °C, anti-H-2Db antibody, flow cytometry MFI, triplicate
Experimental: Peptide binding affinity to H2-Db molecule was performed for each selected peptide. Tap-deficient mouse derived H-2Db RMA-S cells were cultured for 24 h at 26 °C to accumulate empty MHC-I molecules on the cell surface. Cells were washed in serum-free medium and incubated at 3 × 10^5 cells/well with varying concentrations of peptides (1 μM, 5 μM, 10 μM) for 4 h at 37 °C with 5% CO2. Cells were harvested, washed with phosphate-buffered saline (1 × PBS; Gibco Life Technologies), stained with anti-H-2Db fluorescent monoclonal antibody (cat. 1157535; SONY) and analyzed by flow cytometry. All the experiments were performed in triplicate.
In order to experimentally confirm the binding of heteroclitic peptides to H-2 Db molecule, the H-2 Db positive RMA-S cell line was loaded with different concentrations (1 μM, 5 μM, 10 μM) of selected heteroclitic peptides modified in p4 with a predicted affinity higher than the wt peptide.

Sequence of H2-Db molecule (P01899 whole entry, looked up): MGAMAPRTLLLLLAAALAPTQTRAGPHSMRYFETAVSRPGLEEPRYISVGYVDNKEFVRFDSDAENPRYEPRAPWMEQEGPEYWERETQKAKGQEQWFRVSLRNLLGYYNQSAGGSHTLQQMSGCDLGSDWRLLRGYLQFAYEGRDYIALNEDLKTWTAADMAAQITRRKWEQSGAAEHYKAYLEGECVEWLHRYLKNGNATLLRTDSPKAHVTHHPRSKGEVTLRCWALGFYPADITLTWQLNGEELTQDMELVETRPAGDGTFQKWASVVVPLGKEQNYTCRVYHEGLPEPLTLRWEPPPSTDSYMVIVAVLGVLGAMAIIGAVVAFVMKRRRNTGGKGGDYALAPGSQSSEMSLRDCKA

Sequence | Binding to H-2Db compared with the wt peptide (in words)
SVYEFFVWL [SVYEFFVWL (MUT42), heteroclitic Trp2 peptide, Glu at p4] | binding lower than the wt
SVYCFFVWL [SVYCFFVWL (MUT41), heteroclitic Trp2 peptide, Cys at p4] | binding lower than the wt
SVYWFFVWL [SVYWFFVWL (MUT417), heteroclitic Trp2 peptide, Trp at p4] | binding lower than the wt
RAHWNIVTF [RAHWNIVTF (MUT418), heteroclitic HPV-E7 peptide, Trp at p4] | strongest binding
